{"source": "patent US20210186972A1", "about": "“FORMULATIONS AND METHODS FOR THE PREVENTION AND TREATMENT OF TUMOR METASTASIS AND TUMORIGENESIS” (THE UNITED STATES OF AMERICA, AS REPRESENTED BY THE …, priority 2018, published 2021)", "key": {"[1]": {"test_system": "Pol II transcription", "test": "Pol II transcription status: CUGBP and SC35 immunolabeling", "assay_type": "cell-based", "from_the_text": "To further determine whether metarrestin interferes with Pol II transcription in general, CUGBP was immunolabeled. The steady state nuclear distribution of CUGBP, a multifunctional hnRNP protein highly enriched in the PNC, is dependent upon Pol II transcription."}, "[2]": {"test_system": "PC3M-GFP-PTB cells", "test": "PNC prevalence / PNC disassembly in PC3M-GFP-PTB cells", "assay_type": "cell-based, human", "details": "screening hit", "from_the_text": "FIG. 1 is a graph showing the concentration-response curve against PNC prevalence in PC3M (a metastatic prostate cancer cell line)-GFP (green fluorescent protein)-PTB (polypyrimidine tract-binding protein) cells (squares, PC3M, has a PNC prevalence of 75-85% in the absence of treatment) and cytotoxicity as measured by cellular ATP (CELLTITER GLO™) (circles). Representative PTB-GFP images for cells at the indicated concentrations (arrowheads indicate PNCs) (scale bar=5 μm) are shown in the three panels above the graph. The relative signal (%) is along the y-axis and Metarrestin [log M] is along the x-axis.\n(§1) A metastatic prostate cancer cell line, PC3M, was developed in order to screen small molecules that effectively disassemble PNCs (see Pettaway, et al., “Selection of highly metastatic variants of different human prostatic carcinomas using orthotopic implantation in nude mice,” Clin. Cancer Res., (2): 1627-36 (1996), incorporated herein in its entirety). PC3M has a […] stably express GFP-PTB (polypyrimidine track binding protein) (FIG. 1, top panels), an essential component of PNCs (see Huang, et al., “The perinucleolar compartment and transcription,” Journal of Cell Biology, (143): 35-47 (1998), incorporated herein in its entirety). Compounds able to reduce PNC prevalence by 50% were filtered in secondary assays to eliminate those that induced apoptosis, DNA damage, generic cytotoxicity, or cell-cycle blockage (see Norton, et al., “Automated high-content screening for compounds that disassemble the perinucleolar compartment,” J Biomol Screen, (14): 1045-53 (2009) and Frankowski, et al., “Discovery and Development of Small Molecules That Reduce PNC Prevalence, in Probe Reports from the NIH Molecular Libraries Program, Bethesda (Md.).(2010), incorporated herein in their entirety). The remaining hits were evaluated for invasion inhibition through MATRIGEL gelatinous protein mixture and anchorage-independent growth inhibition using soft agar assays."}, "[3]": {"test": "Anchorage-independent growth, soft agar assay of screening hits", "assay_type": "cell-based", "details": "screening hit", "from_the_text": "as §1"}, "[4]": {"test": "Invasion through MATRIGEL, screening hits", "assay_type": "cell-based", "details": "screening hit", "from_the_text": "as §1"}, "[5]": {"test": "Cytotoxicity secondary assay of screening hits", "assay_type": "cell-based", "details": "screening hit", "from_the_text": "as §1"}, "[6]": {"test_system": "PC3M cells", "test": "PNC disassembly by biotin-metarrestin in cultured cells", "assay_type": "cell-based, human", "details": "1 μM, 24 hours (FIG. 60)", "procedure": "FIG. 60 is a set of panels showing the effectiveness of biotin-metarrestin in disassembling PNCs. The effects of metarrestin and biotin-metarrestin were compared in PC3M cells treated at 1 μM or untreated for 24 hours. Arrows indicate PNCs. Scale bar=5 μm."}}}
{"smiles": "CC[C@H](C)[C@@H]1NC(=O)CNC(=O)[C@@H]2Cc3c([nH]c4cc(O)ccc34)[S+]([O-])C[C@@H](NC(=O)CNC1=O)C(=O)N[C@@H](CC(N)=O)C(=O)N1C[C@H](O)C[C@H]1C(=O)N[C@@H]([C@@H](C)[C@@H](O)CO)C(=O)N2", "note": "(stereo in doubt) [α-amanitin, reference compound]", "values": [{"measurement": "Localization of CUGBP", "setting": "[1]", "result": "induces a localization shift to the cytoplasm"}, {"measurement": "SC35 distribution pattern", "setting": "[1]", "result": "changed to isolated large dots"}]}
{"smiles": "N=c1c2c(-c3ccccc3)c(-c3ccccc3)n(Cc3ccccc3)c2ncn1CCCO", "note": "[MLS000556915]", "values": [{"measurement": "PNC inhibition", "setting": "[2]", "result": "potency as a PNC inhibitor"}, {"measurement": "Soft agar growth", "setting": "[3]", "result": "soft agar growth inhibitor"}, {"measurement": "Invasion", "setting": "[4]", "result": "ability to block invasion"}, {"measurement": "Cytotoxicity", "setting": "[5]", "result": "lack of cytotoxicity"}]}
{"smiles": "N=c1c2c(-c3ccccc3)c(-c3ccccc3)n(Cc3cccc(C#CCCCCNC(=O)CCCC[C@@H]4SC[C@@H]5NC(=O)N[C@@H]54)c3)c2ncn1[C@H]1CC[C@H](O)CC1", "note": "[biotin-conjugated metarrestin, N-(6-(3-((3-(trans-4-hydroxycyclohexyl)-4-imino-5,6-diphenyl-3,4-dihydro-7H-pyrrolo[2,3-d]pyrimidin-7-yl)methyl)phenyl)hex-5-yn-1-yl)-5-((3aS,4S,6aR)-2-oxohexahydro-1H-thieno[3,4-d]imidazol-4-yl)pentanamide]", "values": [{"measurement": "PNC disassembly in cultured cells", "setting": "[6]", "result": "maintains its efficacy for PNC disassembly"}]}
